Source: US10633353B2, “Polymerizable compound, composition, polymer, optically anisotropic body, liquid crystal display element, and organic EL display” (DIC Corporation, priority 2014, dated 2020)

Assay: Preservation stability of the coating liquid
Format: physicochemical
Conditions: coating liquid stored for 2 months shielded from light at 0° C.; appearance and GPC
Summary of the method: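 Coating liquid stored 2 months at 0° C shielded from light, then graded A–E. Grades rest on visual appearance, change in composition by GPC, and weight ratio of insoluble components to total solids.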

Row | Structure (SMILES) | Preservation stability
1 | C=CC(=O)OCCCOc1ccc(OC(=O)C2CCC(COc3ccc(OCC4CCC(C(=O)Oc5ccc(OCCCOC(=O)C=C)cc5)CC4)c(/C=N/N(C(=O)C=C)c4nc5ccccc5s4)c3)CC2)cc1 (stereo not shown) [1-cmn-107] | A (No visual change in the appearance of the coating liquid was confirmed. A GPC analysis of the coating liquid confirmed that the change in the composition of the coating liquid was 1% or less.)
2 | C=CC(=O)OCCCCCCOc1ccc(OC(=O)C2CCC(COc3ccc(OCC4CCC(C(=O)Oc5ccc(OCCCCCCOC(=O)C=C)cc5)CC4)c(/C=N/N(C(=O)C=C)c4nc5ccccc5s4)c3)CC2)cc1 (stereo not shown) [1-cmn-108] | A (No visual change in the appearance of the coating liquid was confirmed. A GPC analysis of the coating liquid confirmed that the change in the composition of the coating liquid was 1% or less.)
3 | C=CC(=O)OCCCCCCOc1ccc(C(=O)Oc2ccc(OC(=O)c3ccc(OCCCCCCOC(=O)C=C)cc3)c(/C=N/N(CCCCCC)c3nc4ccccc4s3)c2)cc1 [1-cn-83] | A (No visual change in the appearance of the coating liquid was confirmed. A GPC analysis of the coating liquid confirmed that the change in the composition of the coating liquid was 1% or less.)
4 | C=CC(=O)OCCCOc1ccc(C(=O)Oc2ccc(OCCCOC(=O)C=C)cc2/C=N/Nc2nc3ccccc3s2)cc1 [1-e-69] | A (No visual change in the appearance of the coating liquid was confirmed. A GPC analysis of the coating liquid confirmed that the change in the composition of the coating liquid was 1% or less.)
5 | C=CC(=O)OCCCCCCOc1ccc(C(=O)Oc2ccc(OCCCCCCOC(=O)C=C)cc2/C=N/Nc2nc3ccccc3s2)cc1 [1-e-70] | A (No visual change in the appearance of the coating liquid was confirmed. A GPC analysis of the coating liquid confirmed that the change in the composition of the coating liquid was 1% or less.)
6 | C=CC(=O)OCCCCCCOc1ccc(C(=O)Oc2ccc3cc(OCCCCCCOC(=O)C=C)ccc3c2/C=N/Nc2nc3ccccc3s2)cc1 [1-e-73] | A (No visual change in the appearance of the coating liquid was confirmed. A GPC analysis of the coating liquid confirmed that the change in the composition of the coating liquid was 1% or less.)
7 | C=CC(=O)OCCCOc1ccc(C(=O)Oc2ccc(C(=O)Oc3ccc(OCCCOC(=O)C=C)cc3/C=N/Nc3nc4ccccc4s3)cc2)cc1 [1-eh-71] | A (No visual change in the appearance of the coating liquid was confirmed. A GPC analysis of the coating liquid confirmed that the change in the composition of the coating liquid was 1% or less.)
8 | C=CC(=O)OCCCCCCOc1ccc(C(=O)Oc2ccc(C(=O)Oc3ccc(OCCCCCCOC(=O)C=C)cc3/C=N/Nc3nc4ccccc4s3)cc2)cc1 [1-eh-72] | A (No visual change in the appearance of the coating liquid was confirmed. A GPC analysis of the coating liquid confirmed that the change in the composition of the coating liquid was 1% or less.)
9 | C=CC(=O)OCCCOc1ccc(C(=O)Oc2ccc3cc(C(=O)Oc4ccc(OCCCOC(=O)C=C)cc4/C=N/Nc4nc5ccccc5s4)ccc3c2)cc1 [1-eh-74] | A (No visual change in the appearance of the coating liquid was confirmed. A GPC analysis of the coating liquid confirmed that the change in the composition of the coating liquid was 1% or less.)
10 | C=CC(=O)OCCCCCCOc1ccc(OC(=O)c2ccc(OC(=O)c3ccc4cc(OCCCCCCOC(=O)C=C)ccc4c3)cc2)c(/C=N/Nc2nc3ccccc3s2)c1 [1-eh-75] | A (No visual change in the appearance of the coating liquid was confirmed. A GPC analysis of the coating liquid confirmed that the change in the composition of the coating liquid was 1% or less.)
11 | C=CC(=O)OCCCCOC1CCC(C(=O)Oc2ccc(OC(=O)C3CCC(OCCCCOC(=O)C=C)CC3)c(/C=N/Nc3nc4ccccc4s3)c2)CC1 (stereo not shown) [1-f-18] | A (No visual change in the appearance of the coating liquid was confirmed. A GPC analysis of the coating liquid confirmed that the change in the composition of the coating liquid was 1% or less.)
12 | C=CC(=O)OCCCCCCOC1CCC(C(=O)Oc2ccc(OC(=O)C3CCC(OCCCCCCOC(=O)C=C)CC3)c(/C=N/Nc3nc4ccccc4s3)c2)CC1 (stereo not shown) [1-f-19] | A (No visual change in the appearance of the coating liquid was confirmed. A GPC analysis of the coating liquid confirmed that the change in the composition of the coating liquid was 1% or less.)
13 | C=CC(=O)OCCCCOC(=O)C1CCC(C(=O)OC2CCC(C(=O)Oc3ccc(OC(=O)C4CCC(OC(=O)C5CCC(C(=O)OCCCCOC(=O)C=C)CC5)CC4)c(/C=N/Nc4nc5ccccc5s4)c3)CC2)CC1 (stereo not shown) [1-f-20] | A (No visual change in the appearance of the coating liquid was confirmed. A GPC analysis of the coating liquid confirmed that the change in the composition of the coating liquid was 1% or less.)
14 | C=CC(=O)OCCCCCCOC1CCC(C(=O)Oc2ccc(OC(=O)C3CCC(OCCCCCCOC(=O)C=C)CC3)c(/C=N/N(c3ccccc3)c3ccccc3)c2)CC1 (stereo not shown) [1-f-21] | A (No visual change in the appearance of the coating liquid was confirmed. A GPC analysis of the coating liquid confirmed that the change in the composition of the coating liquid was 1% or less.)
15 | C=CC(=O)OCCCCOC(=O)C1CCC(C(=O)OC2CCC(C(=O)Oc3ccc(OC(=O)C4CCC(OC(=O)C5CCC(C(=O)OCCCCOC(=O)C=C)CC5)CC4)c(/C=N/Nc4nc5ccc6ccccc6c5s4)c3)CC2)CC1 (stereo not shown) [1-f-22] | A (No visual change in the appearance of the coating liquid was confirmed. A GPC analysis of the coating liquid confirmed that the change in the composition of the coating liquid was 1% or less.)
16 | C=CC(=O)OCCCCOC(=O)C1CCC(OC(=O)C2CCC(C(=O)Oc3ccc(OC(=O)C4CCC(C(=O)OC5CCC(C(=O)OCCCCOC(=O)C=C)CC5)CC4)c(/C=N/Nc4nc5ccccc5s4)c3)CC2)CC1 (stereo not shown) [1-f-95] | A (No visual change in the appearance of the coating liquid was confirmed. A GPC analysis of the coating liquid confirmed that the change in the composition of the coating liquid was 1% or less.)
17 | C=CC(=O)OCCCCOC(=O)C1CCC(C(=O)OC2CCC(C(=O)Oc3ccc(OC(=O)C4CCC(OC(=O)C5CCC(C(=O)OCCCCOC(=O)C=C)CC5)CC4)c(/C=N/N(CCCCCC)c4nc5ccccc5s4)c3)CC2)CC1 (stereo not shown) [1-f-97] | A (No visual change in the appearance of the coating liquid was confirmed. A GPC analysis of the coating liquid confirmed that the change in the composition of the coating liquid was 1% or less.)
18 | C=CC(=O)OCCCCOC(=O)C1CCC(C(=O)OC2CCC(C(=O)Oc3ccc(OC(=O)C4CCC(OC(=O)C5CCC(C(=O)OCCCCOC(=O)C=C)CC5)CC4)c(/C=N/N(CCCCC)c4nc5ccccc5s4)c3)CC2)CC1 (stereo not shown) [1-f-98] | A (No visual change in the appearance of the coating liquid was confirmed. A GPC analysis of the coating liquid confirmed that the change in the composition of the coating liquid was 1% or less.)
19 | C=CC(=O)OCCCCOC(=O)C1CCC(C(=O)OC2CCC(C(=O)Oc3ccc(OC(=O)C4CCC(OC(=O)C5CCC(C(=O)OCCCCOC(=O)C=C)CC5)CC4)c(/C=N/N(CCCC)c4nc5ccccc5s4)c3)CC2)CC1 (stereo not shown) [1-f-99] | A (No visual change in the appearance of the coating liquid was confirmed. A GPC analysis of the coating liquid confirmed that the change in the composition of the coating liquid was 1% or less.)
